Data set [1] has as its target T1, Fatty-acid amide hydrolase 1 (Mus musculus, UniProt O08914).
T1 sequence (O08914 whole entry): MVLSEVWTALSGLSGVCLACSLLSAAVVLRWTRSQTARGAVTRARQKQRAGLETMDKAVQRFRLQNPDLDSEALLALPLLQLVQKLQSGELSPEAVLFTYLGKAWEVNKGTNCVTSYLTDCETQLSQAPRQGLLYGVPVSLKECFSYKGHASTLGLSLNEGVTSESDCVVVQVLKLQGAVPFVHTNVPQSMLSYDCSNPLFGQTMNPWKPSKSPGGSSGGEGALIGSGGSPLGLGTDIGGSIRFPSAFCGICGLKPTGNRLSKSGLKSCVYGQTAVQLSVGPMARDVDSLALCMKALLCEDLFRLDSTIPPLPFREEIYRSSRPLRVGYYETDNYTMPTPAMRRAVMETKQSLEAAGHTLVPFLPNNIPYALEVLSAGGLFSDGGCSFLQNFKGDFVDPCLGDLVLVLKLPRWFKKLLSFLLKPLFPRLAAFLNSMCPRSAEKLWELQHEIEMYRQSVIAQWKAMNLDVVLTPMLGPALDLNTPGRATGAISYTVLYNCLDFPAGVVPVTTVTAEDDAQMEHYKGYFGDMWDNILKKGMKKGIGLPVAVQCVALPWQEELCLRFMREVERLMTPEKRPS
As to the kind of experiment: Inhibition of mouse FAAH isolated from brain homogenate using [3H-ethanolamine]AEA as substrate incubated for 20 mins prior to substrate addition measured after 15 mins by beta counting analysis.

Data set [2] deals with T2, Fatty-acid amide hydrolase 1 (Homo sapiens, UniProt O00519).
T2 sequence (O00519 whole entry): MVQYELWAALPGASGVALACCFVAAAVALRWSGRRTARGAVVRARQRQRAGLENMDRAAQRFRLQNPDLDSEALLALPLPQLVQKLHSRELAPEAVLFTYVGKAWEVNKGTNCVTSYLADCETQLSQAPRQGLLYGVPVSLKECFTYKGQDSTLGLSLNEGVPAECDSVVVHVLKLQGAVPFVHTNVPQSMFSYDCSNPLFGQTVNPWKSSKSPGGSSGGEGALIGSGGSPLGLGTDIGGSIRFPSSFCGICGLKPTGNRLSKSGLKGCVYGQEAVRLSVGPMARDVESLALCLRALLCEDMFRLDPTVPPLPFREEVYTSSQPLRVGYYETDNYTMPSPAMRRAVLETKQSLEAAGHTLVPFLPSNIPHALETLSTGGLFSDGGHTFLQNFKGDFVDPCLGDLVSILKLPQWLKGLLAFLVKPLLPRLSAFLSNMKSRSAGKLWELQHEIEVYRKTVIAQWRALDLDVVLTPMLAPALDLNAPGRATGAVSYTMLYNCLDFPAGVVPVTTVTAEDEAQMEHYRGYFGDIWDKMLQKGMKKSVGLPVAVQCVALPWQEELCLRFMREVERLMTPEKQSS
As to the kind of experiment: Inhibition of human recombinant FAAH.

The target of data set [3] is Transient receptor potential cation channel subfamily V member 1 (Mus musculus) (UniProt Q704Y3). Briefly: Displacement of [3H]RTX from TRPV1 receptor in mouse brain fraction. The class given is tissue-based. A general note: Displacement assays read how much labelled ligand stays bound in the presence of the test substance.
Chain of Transient receptor potential cation channel subfamily V member 1 (Mus musculus) (Q704Y3 whole entry): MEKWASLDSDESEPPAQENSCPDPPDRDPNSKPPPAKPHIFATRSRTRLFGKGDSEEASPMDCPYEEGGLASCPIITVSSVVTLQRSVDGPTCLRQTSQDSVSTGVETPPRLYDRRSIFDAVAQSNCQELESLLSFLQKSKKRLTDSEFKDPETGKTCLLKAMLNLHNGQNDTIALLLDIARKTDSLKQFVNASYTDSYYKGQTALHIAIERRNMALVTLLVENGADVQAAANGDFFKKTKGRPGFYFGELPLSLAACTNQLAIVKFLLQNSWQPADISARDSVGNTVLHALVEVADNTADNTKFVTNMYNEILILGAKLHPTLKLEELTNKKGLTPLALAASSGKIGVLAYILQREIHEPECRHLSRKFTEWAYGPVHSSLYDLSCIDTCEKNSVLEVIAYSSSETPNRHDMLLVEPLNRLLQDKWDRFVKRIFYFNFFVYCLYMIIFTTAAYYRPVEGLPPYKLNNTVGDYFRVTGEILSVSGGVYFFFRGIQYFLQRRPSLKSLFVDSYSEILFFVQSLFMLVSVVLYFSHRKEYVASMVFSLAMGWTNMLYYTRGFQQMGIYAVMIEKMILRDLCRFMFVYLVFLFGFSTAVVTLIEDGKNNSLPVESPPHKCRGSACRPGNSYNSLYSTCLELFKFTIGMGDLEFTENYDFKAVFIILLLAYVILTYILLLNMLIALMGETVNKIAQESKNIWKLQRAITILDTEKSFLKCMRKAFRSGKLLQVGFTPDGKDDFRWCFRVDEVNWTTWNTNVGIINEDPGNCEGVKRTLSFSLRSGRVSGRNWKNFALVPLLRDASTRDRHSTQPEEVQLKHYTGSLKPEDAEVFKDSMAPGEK
The target in data set [4] is Voltage-gated inwardly rectifying potassium channel KCNH2 (Homo sapiens, UniProt Q12809). Briefly: Inhibition of human ERG expressed in CHOK1 cells for 5 mins by automated patch clamp assay. The class given is cell-based, CHO-K1. For orientation: The patch-clamp technique gives a direct electrical read-out from membranes.
Chain of Voltage-gated inwardly rectifying potassium channel KCNH2 (Q12809 whole entry): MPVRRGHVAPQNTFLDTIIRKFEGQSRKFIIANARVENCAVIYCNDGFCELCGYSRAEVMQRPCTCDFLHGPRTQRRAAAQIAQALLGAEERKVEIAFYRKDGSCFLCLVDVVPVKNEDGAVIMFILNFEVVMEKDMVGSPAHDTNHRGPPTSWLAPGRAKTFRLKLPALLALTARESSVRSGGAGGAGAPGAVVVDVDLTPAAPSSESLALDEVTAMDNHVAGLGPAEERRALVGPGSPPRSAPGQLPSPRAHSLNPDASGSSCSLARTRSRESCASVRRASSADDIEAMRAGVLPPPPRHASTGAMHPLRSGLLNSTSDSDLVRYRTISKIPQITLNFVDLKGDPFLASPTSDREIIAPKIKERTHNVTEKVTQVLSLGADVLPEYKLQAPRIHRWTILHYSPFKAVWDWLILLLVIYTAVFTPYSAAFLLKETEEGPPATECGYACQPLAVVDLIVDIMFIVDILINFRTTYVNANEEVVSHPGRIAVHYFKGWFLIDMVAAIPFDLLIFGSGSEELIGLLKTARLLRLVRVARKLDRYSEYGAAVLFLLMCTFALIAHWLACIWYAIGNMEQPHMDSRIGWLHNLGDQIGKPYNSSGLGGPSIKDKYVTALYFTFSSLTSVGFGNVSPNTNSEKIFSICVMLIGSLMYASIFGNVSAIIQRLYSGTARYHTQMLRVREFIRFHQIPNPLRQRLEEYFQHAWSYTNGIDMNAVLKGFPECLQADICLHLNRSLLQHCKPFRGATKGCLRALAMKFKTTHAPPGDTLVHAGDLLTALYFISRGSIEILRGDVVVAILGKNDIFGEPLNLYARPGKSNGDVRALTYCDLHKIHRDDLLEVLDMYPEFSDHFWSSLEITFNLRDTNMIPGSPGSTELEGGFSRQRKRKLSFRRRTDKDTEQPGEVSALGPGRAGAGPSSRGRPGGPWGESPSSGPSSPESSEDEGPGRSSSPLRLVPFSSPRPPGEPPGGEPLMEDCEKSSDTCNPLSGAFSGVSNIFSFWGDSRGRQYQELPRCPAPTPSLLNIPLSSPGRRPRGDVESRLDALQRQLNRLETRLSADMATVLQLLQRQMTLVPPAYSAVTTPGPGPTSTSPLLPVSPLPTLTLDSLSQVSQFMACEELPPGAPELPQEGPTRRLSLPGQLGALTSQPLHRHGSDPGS
Data set [5] concerns Rattus norvegicus. Briefly: Analgesic activity in rat assessed as increase in paw withdrawal threshold at 100 mg/kg, po. The class given is functional, organism-based. On the set-up: dose 100 mg/kg.
Data set [6] has as its target Cannabinoid receptor 2 (Mus musculus) (UniProt P47936). Briefly: Displacement of [3H]CP55.940 from CB2 receptor in mouse spleen fraction. The class given is tissue-based.
Data set [7] concerns Mus musculus. Briefly: Anxiolytic activity in mouse at 10 mg/kg, po measured for 5 mins by elevated plus maze test. The class given is organism-based. On the set-up: dose 10 mg/kg, route oral. The note with it: in vivo.
Data set [8] deals with Mus musculus. As to the kind of experiment: Toxicity against CD1 mouse assessed as limbic/striatal stereotypies at 10 mg/kg, po at 240 mins by Irwin test. The class given is organism-based. On the set-up: dose 10 mg/kg, route oral. The following applies: in vivo, 4 h.
For data set [9], the target named is Cannabinoid receptor 1 (Mus musculus) (UniProt P47746). Briefly: Displacement of [3H]CP55.940 from CB1 receptor in mouse brain fraction. The class given is tissue-based.
Chain of Cannabinoid receptor 1 (Mus musculus) (P47746 whole entry): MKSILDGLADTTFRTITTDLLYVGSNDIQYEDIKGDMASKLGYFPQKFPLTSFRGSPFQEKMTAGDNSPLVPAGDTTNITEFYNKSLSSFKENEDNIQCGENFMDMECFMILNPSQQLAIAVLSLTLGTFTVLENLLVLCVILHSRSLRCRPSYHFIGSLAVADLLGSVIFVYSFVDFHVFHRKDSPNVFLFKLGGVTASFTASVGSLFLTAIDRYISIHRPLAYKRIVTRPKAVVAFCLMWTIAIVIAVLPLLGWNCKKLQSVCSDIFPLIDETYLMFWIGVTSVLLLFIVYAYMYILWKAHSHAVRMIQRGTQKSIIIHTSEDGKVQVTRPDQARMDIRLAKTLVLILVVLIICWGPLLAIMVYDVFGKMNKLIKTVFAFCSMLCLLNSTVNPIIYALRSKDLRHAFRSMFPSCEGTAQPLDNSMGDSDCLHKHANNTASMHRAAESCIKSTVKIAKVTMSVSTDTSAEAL
For data set [10], the system named is Mus musculus. Briefly: Anxiolytic activity in mouse at 3 mg/kg, po measured for 5 mins by elevated plus maze test. The class given is organism-based. On the set-up: dose 3 mg/kg, route oral. The following applies: in vivo.
The test system of data set [11] is Rattus norvegicus. Briefly: Analgesic activity in rat assessed as increase in paw withdrawal threshold at 10 mg/kg, po. The class given is functional, organism-based. On the set-up: dose 10 mg/kg.
The subject of data set [12] is Rattus norvegicus. Briefly: Analgesic activity in rat assessed as increase in paw withdrawal threshold at 30 mg/kg, po. The class given is functional, organism-based. On the set-up: dose 30 mg/kg.
In data set [13] the test system is Mus musculus. Briefly: Toxicity against CD1 mouse assessed as limbic/striatal stereotypies at 100 mg/kg, po at 240 mins by Irwin test. On the set-up: dose 100 mg/kg, route oral. The class given is organism-based. The following applies: in vivo, 4 h.
Data set [14] has as its system Mus musculus. As to the kind of experiment: Toxicity against CD1 mouse assessed as limbic/striatal stereotypies at 30 mg/kg, po at 240 mins by Irwin test. The note with it: in vivo, 4 h. On the set-up: dose 30 mg/kg, route oral. The class given is organism-based.
For data set [15], the species on record is Mus musculus. Briefly: Inhibition of DAGL-mediated 2AG synthesis in mouse brain homogenate using […] as substrate incubated for 20 mins prior to substrate addition. The class given is tissue-based.
The test system of data set [16] is Mus musculus. Briefly: Toxicity against CD1 mouse assessed as limbic/striatal stereotypies at 30 mg/kg, po at 60 mins by Irwin test. The class given is organism-based. On the set-up: dose 30 mg/kg, route oral. The note with it: in vivo, 1 h.
Data set [17] deals with Mus musculus. As to the kind of experiment: Anxiolytic activity in mouse at 30 mg/kg, po measured for 5 mins by elevated plus maze test. On the set-up: dose 30 mg/kg, route oral. The following applies: in vivo. The class given is organism-based.
Data set [18] deals with T3, N-acyl-phosphatidylethanolamine-hydrolyzing phospholipase D (Mus musculus) (UniProt Q8BH82).
T3 sequence (whole entry): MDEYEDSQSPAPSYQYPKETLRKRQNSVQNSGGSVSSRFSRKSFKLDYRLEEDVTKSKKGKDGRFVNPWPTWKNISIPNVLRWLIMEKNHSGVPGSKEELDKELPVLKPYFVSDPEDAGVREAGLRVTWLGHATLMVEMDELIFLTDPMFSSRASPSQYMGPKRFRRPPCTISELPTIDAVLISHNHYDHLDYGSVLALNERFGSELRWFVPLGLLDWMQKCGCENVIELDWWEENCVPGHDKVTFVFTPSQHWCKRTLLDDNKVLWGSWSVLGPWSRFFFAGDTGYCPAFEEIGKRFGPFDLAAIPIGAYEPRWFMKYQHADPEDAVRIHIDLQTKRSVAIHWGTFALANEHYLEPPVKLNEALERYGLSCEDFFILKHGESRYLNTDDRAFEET
As to the kind of experiment: Inhibition of NAPE-PLD-meidated AEA synthesis in mouse brain homogenate using [3H]NArPE as substrate incubated for 20 mins prior to substrate addition. The class given is tissue-based.

Data set [19] addresses T4, Monoglyceride lipase (Mus musculus) (UniProt O35678).
T4 sequence (whole entry): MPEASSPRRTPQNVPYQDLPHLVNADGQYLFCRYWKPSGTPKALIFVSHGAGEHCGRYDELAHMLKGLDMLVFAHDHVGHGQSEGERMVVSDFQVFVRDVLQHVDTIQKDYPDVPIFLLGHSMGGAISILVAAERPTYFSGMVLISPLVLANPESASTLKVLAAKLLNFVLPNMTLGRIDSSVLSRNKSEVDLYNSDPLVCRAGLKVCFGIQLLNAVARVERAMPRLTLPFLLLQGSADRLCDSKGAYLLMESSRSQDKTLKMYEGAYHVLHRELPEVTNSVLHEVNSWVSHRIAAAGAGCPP
As to the kind of experiment: Inhibition of MAGL-mediated 2AG hydrolysis in mouse brain homogenate using [3H]2OG as substrate incubated for 20 mins prior to substrate addition. The class given is tissue-based.

Data set [20] has as its system Mus musculus. As to the kind of experiment: Toxicity against CD1 mouse assessed as limbic/striatal stereotypies at 10 mg/kg, po at 60 mins by Irwin test. The note with it: in vivo, 1 h. On the set-up: dose 10 mg/kg, route oral. The class given is organism-based.
Data set [21] concerns Mus musculus. Briefly: Toxicity against CD1 mouse assessed as limbic/striatal stereotypies at 100 mg/kg, po at 60 mins by Irwin test. The following applies: in vivo, 1 h. The class given is organism-based. On the set-up: dose 100 mg/kg, route oral.
Data set [22] deals with Rattus norvegicus. Briefly: Analgesic activity in rat assessed as increase in paw withdrawal threshold at 50 mg/kg, po. The class given is functional, organism-based. On the set-up: dose 50 mg/kg.

Each structure is given as a SMILES string. Active and inactive are the calls of the source.

Chain of Cannabinoid receptor 2 (Mus musculus) (P47936 whole entry): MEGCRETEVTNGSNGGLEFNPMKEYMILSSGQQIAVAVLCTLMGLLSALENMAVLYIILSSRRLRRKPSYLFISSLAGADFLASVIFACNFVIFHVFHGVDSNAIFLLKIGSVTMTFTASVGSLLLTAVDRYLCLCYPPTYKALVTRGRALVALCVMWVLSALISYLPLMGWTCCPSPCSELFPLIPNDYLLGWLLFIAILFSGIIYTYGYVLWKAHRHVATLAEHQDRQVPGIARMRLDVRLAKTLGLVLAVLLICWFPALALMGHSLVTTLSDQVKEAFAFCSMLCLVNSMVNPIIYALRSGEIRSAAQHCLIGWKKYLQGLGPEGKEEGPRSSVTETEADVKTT

What is called IC50 is the concentration that gives 50% inhibition. Regarding `NC(=O)c1cccc(-c2cccc(OC(=O)NCCCCCCc3ccccc3)c2)c1`, the IC50 in [1] is 14 nM; in data set [2] it was 36 nM.
What is called Ki is the dissociation constant of the complex between target and ligand, obtained from inhibition or displacement. The low end stands for a stronger hold on the target, the high end for a looser hold on the target. Take `Cc1cc(C(N)=O)c(-c2cccc(OC(=O)NCCCCCCc3ccccc3)c2)o1`: the outcome (in data set [3]; in data set [6]; in data set [9]; with Rattus norvegicus [11]) was inactive. Also, the IC50 is over 10000 nM in data set [4], 1.7 nM in data set [1] and 102 nM in [2]. Besides, the outcome with Rattus norvegicus [5] and in the data set with Rattus norvegicus [12] was Active. Besides, the Activity entry in the data set with Mus musculus [7] was “Non-toxic”; in the data set with Mus musculus [8], “Non-toxic”; in the data set with Mus musculus [10], “Non-toxic”; in the data set with Mus musculus [13], “Non-toxic”; with Mus musculus [14] it was “Non-toxic”; in the data set with Mus musculus [16], “Toxic”. Further, the Activity result in the data set with Mus musculus [17] is reported as “Non-toxic”; with Mus musculus [20], “Toxic”; with Mus musculus [21] it was “Toxic”. For the same compound, the inhibitory constant (Ki) in data set [1] worked out at 0.49 nM. The inhibition entry (in the data set filed under Mus musculus [15]; in data set [18]; in data set [19]) was “inactive” in each case.
In the case of `NC(=O)c1cccc(-c2cccc(OC(=O)NC3CCCCC3)c2)c1`, the result in the data set on Rattus norvegicus [22] was inactive.

These data come from ChEMBL document CHEMBL2163339, “Discovery of potent inhibitors of human and mouse fatty acid amide hydrolases” (J Med Chem, 2012).
